Source: ChEMBL document CHEMBL6087460, “Generating a Peptide Library Using the Repeats of Amino Acid Scaffolds Created by Sliding the Framework of a 7-mer Human Chemerin Segment and Discovery of Potent Antibacterial and Antimycobacterial Peptides” (J Med Chem, 2025)
In brackets after ≈: the same amount, converted by molar mass. Activity calls are given as the source filed them. The calls are words filed in the database; no cut-off is given here.

Experiments:
[1] = system: Mycobacterium tuberculosis variant bovis; assay: Antitubercular activity against Mycobacterium bovis BCG infected in BALB/c mouse assessed as bacterial survival in lungs at 5 mg/kg, iv administered once a day for 2 weeks measured on day 15 relative to control; format: functional; conditions: 336 h
[2] = system: Mycobacterium tuberculosis variant bovis; assay: Antitubercular activity against Mycobacterium bovis BCG incubated for 5 days by rezasurin dye based assay; format: functional; conditions: 120 h, time 5 day
[3] = system: Mycobacterium tuberculosis variant bovis; assay: Antitubercular activity against Mycobacterium bovis BCG infected in BALB/c mouse assessed as bacterial survival in spleen at 5 mg/kg, iv administered once a day for 2 weeks measured on day 15 relative to control; format: functional; conditions: 336 h
[4] = system: Mycobacterium tuberculosis variant bovis; assay: Antitubercular activity against Mycobacterium bovis BCG infected in BALB/c mouse assessed as decrease in bacterial count in lungs at 2.5 to 5 mg/kg, iv administered once a day for 2 weeks; format: functional, organism-based; conditions: dose 2.5-5 mg/kg
[5] = system: Mycobacterium tuberculosis variant bovis; assay: Antitubercular activity against Mycobacterium bovis BCG infected in BALB/c mouse assessed as decrease in bacterial count in spleen at 2.5 to 5 mg/kg, iv administered once a day for 2 weeks; format: functional, organism-based; conditions: dose 2.5-5 mg/kg
[6] = system: Mycobacterium tuberculosis variant bovis; assay: Antimycobacterial activity against Mycobacterium bovis BCG infected in human THP-1 cells derived macrophages assessed as reduction in intracellular bacterial survival at 10 ug/ml incubated for 24 hrs relative to control; format: functional; conditions: dose 10 µg/ml
[7] = system: Mycobacterium tuberculosis variant bovis; assay: Antimycobacterial activity against Mycobacterium bovis BCG infected in human THP-1 cells derived macrophages assessed as reduction in intracellular bacterial survival at 20 ug/ml incubated for 24 hrs relative to control; format: functional; conditions: dose 20 µg/ml

H-VLGRVLGRVLGRVLGR-OH
survival at 5 mg/kg [1]: ~10%
MIC [2]: 2.5 µM
survival at 5 mg/kg [3]: ~10%
Activity [4]: Active
Activity [5]: Active
Activity [6]: 25%
Activity [7]: 10%

H-GRLGRLGRLGRLGRL-OH
MIC [2]: 5 µM

H-RLVRLVRLVRLVRLV-OH
MIC [2]: > 10 µM

H-GRLVGRLVGRLVGRLV-OH
survival at 5 mg/kg [1]: ~10%
MIC [2]: 2.5 µM
survival at 5 mg/kg [3]: ~10%
Activity [4]: Active
Activity [5]: Active
Activity [6]: 35%
Activity [7]: 20%

H-LGRLLGRLLGRL-OH
MIC [2]: 5 µM

H-KVLGKVLGKVLGKVLG-OH
MIC [2]: > 10 µM

H-KVLKVLKVLKVL-OH
MIC [2]: > 10 µM

H-RLVRLVRLVRLV-OH
MIC [2]: 5 µM

CO[C@H]1/C=C/O[C@@]2(C)Oc3c(C)c(O)c4c(O)c(c(/C=N/N5CCN(C)CC5)c(O)c4c3C2=O)NC(=O)/C(C)=C\C=C\[C@H](C)[C@H](O)[C@@H](C)[C@@H](O)[C@@H](C)[C@H](OC(C)=O)[C@@H]1C [RIFAMPIN]
MIC [2]: 0.25 µM (≈ 0.206 µg/mL)

H-RLRLRLRLRL-OH
MIC [2]: 10 µM
